Test results published in US9974768B2, “Pharmaceutical for improving dysphagia” (MEIJI SEIKA PHARMA CO., LTD., priority 2013, dated 2018).
“Also recorded” adds a separate entry of the source.

Legend:
Hartley guinea pigs = experiment: Swallowing reflex decrease by repeated administrations of haloperidol (water drinking frequency); type: in vivo, guinea pig; conditions: haloperidol 1 mg/kg s.c. twice per day for 7 days, compared to physiological saline group
Protocol: To 6 week-old female Hartley guinea pigs (330 to 390 g) habituated for 1 week after receipt, a physiological saline solution, or a haloperidol solution was injected subcutaneously in a dosage of 1 mg/kg approx. every 12 hours twice per day for 7 days. Thereafter, a guinea pig was fixed at extremities, and 500 μL of distilled water was injected over 5 sec through a device to a part just before the pharynx, and the total frequency of swallowing until 10 sec and 30 sec from the injection was measured based on a muscle movement in a pharyngeal site. Thereafter a physiological saline solution, or a haloperidol solution was injected again (1 mg/kg).
The measurements were repeated totally 4 times at intervals of 1 min. […] Based on the result, the guinea pig was used as a dysphagia model induced by repeated administrations of haloperidol in the following experiments for evaluation of drug efficacy.

[1] = system: blood pressure increase induced by angiotensin I; experiment: Blood pressure increase induced by intravenous angiotensin I in normal rat; conditions: angiotensin I 300 ng/kg i.v. after 1 hour
Protocol: The respective dose of a captopril, or lisinopril aqueous solution was administered orally and the blood pressures were measured after 1 hour. Thereafter, angiotensin I was administered intravenously (300 ng/kg) to induce blood pressure increase and a change in the mean blood pressure was measured.

[2] = system: guinea pig dysphagia model induced by repeated administrations of haloperidol; experiment: Swallowing reflex improvement in guinea pig dysphagia model induced by repeated administrations of haloperidol (water drinking frequency); type: in vivo
normal guinea pig = experiment: Swallowing reflex in normal guinea pig after local pharyngeal administration of substance P receptor antagonist FK888; type: in vivo
Protocol: FIG. 4 is a graph showing the results of a study of decrease in a swallowing reflex in a normal guinea pig by local administration to a pharyngeal site of a substance P receptor antagonist, and an improving effect by a prior local administration to the pharyngeal site of a captopril aqueous solution in Example 3.
FK888 (10 μM, 50 μL/guinea pig), which is a substance P receptor antagonist, was administered locally with a spray device to a pharyngeal site of a guinea pig, and water drinking reflection frequency was measured in the same way as in Experiment 1.

O=C(CCCN1CCC(O)(c2ccc(Cl)cc2)CC1)c1ccc(F)cc1 [haloperidol]
water drinking frequency (Hartley guinea pigs): significantly decreased

NCCCC[C@H](N[C@@H](CCc1ccccc1)C(=O)O)C(=O)N1CCC[C@H]1C(=O)O [lisinopril]
vasopressor reaction by administration of angiotensin I (change in mean blood pressure) ([1]; 100 μL of 5 μM aqueous solution orally): had no influence | vasopressor reaction by administration of angiotensin I (change in mean blood pressure) ([1]; 100 μL of 5 mM aqueous solution orally): suppressed a vasopressor reaction | dose (solution concentration) with significant increase in water drinking frequency ([2]; 100 μL aqueous solution, single spray to pharyngeal mucosa): ≥ 50 nM | water drinking frequency ([2]; 100 μL of 0.5 nM to 500 μM aqueous solution, single spray to pharyngeal mucosa): dose-dependent increase | water drinking frequency ([2]; 100 μL of 50 nM aqueous solution, single spray to pharyngeal mucosa, 30 min after administration): increase in water drinking frequency | dose per administration giving dysphagia improving effect in a human ([2]; converted for a human having an average body weight of 60 kg): ≥ 300 ng | dysphagia improvement effective dose based on body weight ([2]; converted from effective dose obtained in Examples): 0.005 µg/kg | water drinking frequency (dysphagia improving effect) ([2]; local administration of 100 μL of 50 μM aqueous solution to pharyngeal mucosa, 2 hours after administration): exhibited an improving effect on dysphagia | water drinking frequency (dysphagia improving effect) ([2]; oral (intragastric) administration of same dose as local (100 μL of 50 mM solution), 2 hours after administration): exerted no influence; also recorded: no dysphagia improving effect was observed

CN(Cc1ccccc1)C(=O)[C@H](Cc1ccc2ccccc2c1)NC(=O)[C@@H]1C[C@@H](O)CN1C(=O)c1cn(C)c2ccccc12 [FK888]
increase in water drinking frequency by lisinopril (50 nM, 100 μL) ([2]; FK888 10 nM, 100 μL sprayed to pharyngeal mucosa 15 min after lisinopril administration): almost completely suppressed | influence on swallowing reflex (normal guinea pig; FK888 10 nM, 100 μL, local, stated as lower limit): not influencing swallowing reflex | swallowing reflex (water drinking reflection frequency) (normal guinea pig; FK888 10 μM, 50 μL/guinea pig, single local spray to pharyngeal site): decrease in swallowing reflex

C[C@H](CS)C(=O)N1CCC[C@H]1C(=O)O [captopril]
water drinking frequency ([2]; 100 μL of 50 μM aqueous solution, single spray to pharyngeal mucosa, 30 min after administration): significant increase; also recorded: exhibited an improving effect on dysphagia | water drinking frequency ([2]; 100 μL of 50 mM aqueous solution, single spray to pharyngeal mucosa, 30 min after administration): significant increase; also recorded: exhibited an improving effect on dysphagia | water drinking frequency (dysphagia improving effect) ([2]; oral (intragastric) administration, same dose as 100 μL of 50 μM solution, 30 min after administration): did not exert an influence | water drinking frequency (dysphagia improving effect) ([2]; oral (intragastric) administration, same dose as 100 μL of 50 mM solution, 30 min after administration): did not exert an influence | decrease in swallowing reflex by FK888 administration (normal guinea pig; captopril aqueous solution sprayed to pharyngeal site in a single dose 30 min before FK888): suppressed
